Paper PMC5479826, “Determination of Crucial Immunogenic Epitopes in Major Peanut Allergy Protein, Ara h2, via Novel Nanoallergen Platform” (Scientific Reports, 2017)

System: patient sera IgEs
Assay: ELISA binding assay with patient sera
Design: species or system human
Procedure: A high binding 96 well plate was incubated with anti-Human IgE in Carbonate-Bicarbonate buffer (Sigma) at a concentration of 3 nM for 16 hours at 4 °C. Plate was washed with washing buffer (PBS with 0.5% tween 20) and then blocked with blocking buffer (5% BSA in PBS with 0.1% tween 20) for 1 hr at room temperature. Plate was washed with automatic plate washer (AquaMax 2000), then varying concentrations of either Ara h2-Biotin (Indoors Biotechnologies) or FITC-peptide 2 conjugate in blocking buffer for 1 hour. Plate was washed again and then either streptavidin-HRP (1:5 000 dilution) or anti-FITC HRP IgG (1:5000 dilution) was added in blocking buffer. After another washing step, Amplex Red substrate was added (Invitrogen) and plate fluorescence was read at 5 minute intervals according to manufacturer’s instructions.

Substance: ERDPYSP^OHSQDPYSP^OHS [Epitope 2]
- EC50 (Fig. S-2, patient serum 1 on anti-IgE coated plate, Ara h 2-Biotin or FITC-tagged epitope 2 peptide): 465 ± 200 nM
- Binding to patient sera IgEs in ELISA (detectability) (serum 1, result in words): detectable binding
